Measurements as given in ChEMBL document CHEMBL1201862, “PubChem BioAssay data set” (2004).
Values belong to the molecule of their own block, whether it stands above or below them. Activity calls are given as the source filed them.

How the values were obtained:
[1] = target: T1, Trace amine-associated receptor 1 (Homo sapiens, UniProt Q96RJ0); assay: Counterscreen for agonists of the human trace amine associated receptor 1 (hTAAR1): Fluorescence-based cell-based high throughput dose response assay to identify hTAAR1 agonist that also desensitize TAAR1 receptor response.; format: functional
T1 sequence (Q96RJ0 whole entry): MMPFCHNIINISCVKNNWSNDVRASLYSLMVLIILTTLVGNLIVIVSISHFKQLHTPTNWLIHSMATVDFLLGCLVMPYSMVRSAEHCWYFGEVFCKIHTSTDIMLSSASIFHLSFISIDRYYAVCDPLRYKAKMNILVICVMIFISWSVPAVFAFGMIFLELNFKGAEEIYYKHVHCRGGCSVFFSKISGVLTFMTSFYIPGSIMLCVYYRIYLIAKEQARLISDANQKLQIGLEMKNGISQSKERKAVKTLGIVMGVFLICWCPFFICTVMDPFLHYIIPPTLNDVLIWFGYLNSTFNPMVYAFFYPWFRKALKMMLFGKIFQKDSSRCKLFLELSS

Mu-type opioid receptor [2] = target: T2, Mu-type opioid receptor (Homo sapiens, UniProt P35372); format: functional, cell-based
T2 sequence (P35372 whole entry): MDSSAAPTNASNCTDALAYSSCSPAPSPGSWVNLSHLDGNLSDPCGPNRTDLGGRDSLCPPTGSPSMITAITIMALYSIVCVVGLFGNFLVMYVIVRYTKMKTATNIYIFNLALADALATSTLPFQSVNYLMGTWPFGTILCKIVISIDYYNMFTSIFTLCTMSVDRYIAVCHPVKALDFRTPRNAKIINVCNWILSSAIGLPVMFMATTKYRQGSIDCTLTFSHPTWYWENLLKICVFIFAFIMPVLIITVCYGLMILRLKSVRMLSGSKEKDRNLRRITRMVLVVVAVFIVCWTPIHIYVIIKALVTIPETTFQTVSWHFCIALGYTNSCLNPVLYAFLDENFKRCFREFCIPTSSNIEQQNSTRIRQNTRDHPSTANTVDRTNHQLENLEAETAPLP

[3] = target: T1, Trace amine-associated receptor 1; assay: Fluorescence-based cell-based high throughput dose response assay to identify agonists of the human trace amine associated receptor 1 (TAAR1).; format: functional
cells [4] = format: functional, cell-based
cells [5] = format: functional, cell-based; remark: listed apart in the source
[6] = target: Voltage-gated inwardly rectifying potassium channel KCNH2 (Homo sapiens, UniProt Q12809); conditions: Potency;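 further: confirmatory quantitative high-throughput screen measuring inhibition of hERG channel activity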
Voltage-gated inwardly rectifying potassium channel KCNH2, sequence (Q12809 whole entry): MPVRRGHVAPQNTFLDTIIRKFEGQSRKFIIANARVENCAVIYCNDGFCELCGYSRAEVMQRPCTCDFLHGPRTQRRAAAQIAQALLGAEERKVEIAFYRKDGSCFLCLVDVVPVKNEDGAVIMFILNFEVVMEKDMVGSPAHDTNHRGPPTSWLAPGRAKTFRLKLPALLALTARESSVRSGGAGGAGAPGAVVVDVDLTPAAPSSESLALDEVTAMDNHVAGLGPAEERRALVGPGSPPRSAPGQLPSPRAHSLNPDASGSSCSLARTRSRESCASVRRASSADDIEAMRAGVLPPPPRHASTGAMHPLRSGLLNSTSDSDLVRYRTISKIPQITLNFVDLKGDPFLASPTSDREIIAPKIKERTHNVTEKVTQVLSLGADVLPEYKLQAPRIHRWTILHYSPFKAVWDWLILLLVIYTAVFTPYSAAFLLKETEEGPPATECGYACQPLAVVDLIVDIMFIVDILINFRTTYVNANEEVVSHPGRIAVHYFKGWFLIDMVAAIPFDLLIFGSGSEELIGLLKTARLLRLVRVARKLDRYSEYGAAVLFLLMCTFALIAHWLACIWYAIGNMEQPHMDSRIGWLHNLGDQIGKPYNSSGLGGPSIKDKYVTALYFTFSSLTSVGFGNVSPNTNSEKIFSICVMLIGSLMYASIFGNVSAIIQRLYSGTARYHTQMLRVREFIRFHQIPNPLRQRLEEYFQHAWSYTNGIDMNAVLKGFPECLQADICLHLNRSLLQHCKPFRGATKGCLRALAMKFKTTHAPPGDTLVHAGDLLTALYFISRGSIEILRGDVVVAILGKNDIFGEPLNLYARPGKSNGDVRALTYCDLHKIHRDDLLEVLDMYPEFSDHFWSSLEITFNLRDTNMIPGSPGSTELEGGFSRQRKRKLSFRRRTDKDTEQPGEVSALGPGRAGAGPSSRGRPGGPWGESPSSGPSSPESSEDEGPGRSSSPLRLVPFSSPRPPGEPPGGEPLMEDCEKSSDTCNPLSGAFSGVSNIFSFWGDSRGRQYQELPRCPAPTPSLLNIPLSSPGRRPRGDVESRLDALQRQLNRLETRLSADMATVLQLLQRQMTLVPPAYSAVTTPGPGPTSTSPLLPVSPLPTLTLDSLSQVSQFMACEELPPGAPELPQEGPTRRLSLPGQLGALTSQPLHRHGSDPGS

[7] = target: 5-hydroxytryptamine receptor 2A (Mus musculus, UniProt P35363); format: functional, cell-based;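 further: CHO-K1 cells with tagged receptor and beta-arrestin; agonist potency measured as compound-induced activation of the receptor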
5-hydroxytryptamine receptor 2A, sequence (P35363 whole entry): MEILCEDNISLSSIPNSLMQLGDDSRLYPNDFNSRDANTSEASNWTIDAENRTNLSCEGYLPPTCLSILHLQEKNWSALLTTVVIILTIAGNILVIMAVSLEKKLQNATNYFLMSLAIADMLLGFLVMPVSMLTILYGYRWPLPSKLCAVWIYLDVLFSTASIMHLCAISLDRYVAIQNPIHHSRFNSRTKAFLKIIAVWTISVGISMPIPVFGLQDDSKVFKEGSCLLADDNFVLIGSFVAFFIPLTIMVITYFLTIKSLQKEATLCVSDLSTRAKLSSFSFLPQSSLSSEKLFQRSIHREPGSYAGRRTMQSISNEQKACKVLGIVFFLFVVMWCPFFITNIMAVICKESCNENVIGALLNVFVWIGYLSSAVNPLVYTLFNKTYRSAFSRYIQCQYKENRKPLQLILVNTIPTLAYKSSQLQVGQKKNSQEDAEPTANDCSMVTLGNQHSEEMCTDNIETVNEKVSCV

Protein skinhead-1 = target: T3, Protein skinhead-1 (Caenorhabditis elegans, UniProt P34707); format: functional
T3 sequence (P34707 whole entry): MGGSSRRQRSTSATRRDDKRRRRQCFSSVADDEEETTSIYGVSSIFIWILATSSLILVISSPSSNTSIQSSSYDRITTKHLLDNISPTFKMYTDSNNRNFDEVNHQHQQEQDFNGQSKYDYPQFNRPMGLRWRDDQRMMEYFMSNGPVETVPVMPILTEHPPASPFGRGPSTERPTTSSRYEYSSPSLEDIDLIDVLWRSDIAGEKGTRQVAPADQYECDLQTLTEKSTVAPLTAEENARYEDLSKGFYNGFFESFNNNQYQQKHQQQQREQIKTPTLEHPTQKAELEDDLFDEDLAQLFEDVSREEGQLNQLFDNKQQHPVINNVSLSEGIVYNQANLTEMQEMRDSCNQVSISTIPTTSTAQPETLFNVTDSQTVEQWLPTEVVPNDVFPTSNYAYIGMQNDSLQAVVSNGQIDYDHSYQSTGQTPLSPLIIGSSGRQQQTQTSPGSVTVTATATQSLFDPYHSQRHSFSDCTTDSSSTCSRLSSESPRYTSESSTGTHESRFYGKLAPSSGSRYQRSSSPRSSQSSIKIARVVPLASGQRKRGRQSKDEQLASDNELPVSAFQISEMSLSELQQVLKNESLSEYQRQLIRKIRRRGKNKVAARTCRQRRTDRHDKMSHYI

HeLa = assay: HeLa cell cytotoxicity, dose response, cytotoxicity control for MITF activator project, CellTiter-Glo luminescence, cherry-pick samples (AID 540259); format: functional, cell-based; conditions: Homo sapiens
Escherichia coli = assay: microbe, parasite or virus in culture
[8] = target: T4, Dual specificity protein phosphatase 6 (Rattus norvegicus, UniProt Q64346); format: functional
T4 sequence (Q64346 whole entry): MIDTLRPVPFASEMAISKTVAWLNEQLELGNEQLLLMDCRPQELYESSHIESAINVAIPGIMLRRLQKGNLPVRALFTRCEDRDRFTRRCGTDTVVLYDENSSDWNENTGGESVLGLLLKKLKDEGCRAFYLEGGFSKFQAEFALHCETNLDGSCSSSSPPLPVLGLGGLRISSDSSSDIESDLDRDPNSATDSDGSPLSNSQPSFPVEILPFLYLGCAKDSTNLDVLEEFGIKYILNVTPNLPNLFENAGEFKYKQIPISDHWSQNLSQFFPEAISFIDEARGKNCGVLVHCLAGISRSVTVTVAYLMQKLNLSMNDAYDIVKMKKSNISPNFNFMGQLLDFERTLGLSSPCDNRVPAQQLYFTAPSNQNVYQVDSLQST

[9] = target: Glyceraldehyde-3-phosphate dehydrogenase (Homo sapiens, UniProt P04406)
Glyceraldehyde-3-phosphate dehydrogenase, sequence (P04406 whole entry): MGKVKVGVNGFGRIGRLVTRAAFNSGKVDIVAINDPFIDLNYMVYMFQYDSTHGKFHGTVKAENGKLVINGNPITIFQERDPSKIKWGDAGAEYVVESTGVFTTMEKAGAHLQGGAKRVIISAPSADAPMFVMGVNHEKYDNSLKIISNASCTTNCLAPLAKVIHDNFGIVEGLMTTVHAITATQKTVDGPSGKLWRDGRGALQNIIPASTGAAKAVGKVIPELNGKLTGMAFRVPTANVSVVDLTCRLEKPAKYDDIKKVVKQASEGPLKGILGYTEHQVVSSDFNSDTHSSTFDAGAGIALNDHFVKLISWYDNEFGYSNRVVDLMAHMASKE

[10] = target: T5, Tyrosine-protein phosphatase non-receptor type 7 (Homo sapiens, UniProt P35236); format: functional
T5 sequence (P35236 whole entry): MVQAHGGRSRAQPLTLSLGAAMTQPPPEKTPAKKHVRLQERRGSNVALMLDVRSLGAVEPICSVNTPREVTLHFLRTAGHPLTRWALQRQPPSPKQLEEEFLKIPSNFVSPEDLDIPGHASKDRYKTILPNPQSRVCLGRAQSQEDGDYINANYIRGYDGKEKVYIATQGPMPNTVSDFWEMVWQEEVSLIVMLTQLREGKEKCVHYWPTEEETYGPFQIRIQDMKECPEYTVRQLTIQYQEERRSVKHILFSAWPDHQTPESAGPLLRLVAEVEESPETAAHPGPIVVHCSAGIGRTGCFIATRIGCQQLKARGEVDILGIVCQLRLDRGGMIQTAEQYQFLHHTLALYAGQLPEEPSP

[11] = target: T4, Dual specificity protein phosphatase 6
[12] = non-specific cell cytotoxicity, dose response, cytotoxicity control for PAX8 inhibitor project, plate reader, dry powder samples (AID 743021); format: functional, cell-based
[13] = target: 5-hydroxytryptamine receptor 5A (Homo sapiens, UniProt P47898); assay: Counterscreen for agonists of OPRM1-OPRD1 heterodimerization: luminescence-based cell-based high throughput dose response assay to identify agonists of 5-hydroxytryptamine (serotonin) 5A receptor (HTR5A). [Related pubchem assays (depositor defined):AID504326, AID504355, AID504692, AID504904, AID504905]; format: functional
5-hydroxytryptamine receptor 5A, sequence (P47898 whole entry): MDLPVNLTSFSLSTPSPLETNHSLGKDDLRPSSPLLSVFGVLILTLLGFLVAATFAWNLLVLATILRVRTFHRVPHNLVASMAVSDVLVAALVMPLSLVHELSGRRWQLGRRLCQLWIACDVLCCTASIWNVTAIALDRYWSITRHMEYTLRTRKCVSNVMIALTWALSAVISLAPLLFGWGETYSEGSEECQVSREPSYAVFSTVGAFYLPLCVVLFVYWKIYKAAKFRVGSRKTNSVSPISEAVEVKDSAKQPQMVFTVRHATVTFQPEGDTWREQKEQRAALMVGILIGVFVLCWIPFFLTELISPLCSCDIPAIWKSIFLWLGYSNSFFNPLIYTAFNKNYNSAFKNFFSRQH

[14] = target: Delta-type opioid receptor (Homo sapiens, UniProt P41143); assay: Counterscreen for agonists of heterodimerization of the mu 1 (OPRM1) and delta 1 (OPRD1) opioid receptors: Luminescence-based cell-based high throughput dose response assay to identify agonists of OPRD1 homodimerization. [Related pubchem assays (depositor defined):AID504326, AID504355, AID504692, AID504904, AID504905]; format: functional
Delta-type opioid receptor, sequence (P41143 whole entry): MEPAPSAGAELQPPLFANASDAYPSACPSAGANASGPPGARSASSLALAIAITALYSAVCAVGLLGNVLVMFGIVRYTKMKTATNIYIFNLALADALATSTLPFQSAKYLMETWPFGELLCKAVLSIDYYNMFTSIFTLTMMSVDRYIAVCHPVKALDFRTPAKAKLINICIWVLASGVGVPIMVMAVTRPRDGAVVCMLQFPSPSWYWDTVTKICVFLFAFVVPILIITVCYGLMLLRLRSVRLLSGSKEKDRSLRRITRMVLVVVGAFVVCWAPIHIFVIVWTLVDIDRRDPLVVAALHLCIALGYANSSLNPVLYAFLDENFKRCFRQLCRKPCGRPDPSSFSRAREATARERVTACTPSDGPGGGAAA

Mu-type opioid receptor [15] = target: T2, Mu-type opioid receptor; assay: Counterscreen for agonists of heterodimerization of the mu 1 (OPRM1) and delta 1 (OPRD1) opioid receptors: Luminescence-based cell-based high throughput dose response assay to identify agonists of OPRM1 homodimerization.; format: functional
Hexokinase HKDC1 = target: T6, Hexokinase HKDC1 (Homo sapiens, UniProt Q2TB90); assay: HKDC1 hexokinase inhibitors, SAR follow-up, biochemical, set 2 (AID 588355); format: functional
T6 sequence (Q2TB90 whole entry): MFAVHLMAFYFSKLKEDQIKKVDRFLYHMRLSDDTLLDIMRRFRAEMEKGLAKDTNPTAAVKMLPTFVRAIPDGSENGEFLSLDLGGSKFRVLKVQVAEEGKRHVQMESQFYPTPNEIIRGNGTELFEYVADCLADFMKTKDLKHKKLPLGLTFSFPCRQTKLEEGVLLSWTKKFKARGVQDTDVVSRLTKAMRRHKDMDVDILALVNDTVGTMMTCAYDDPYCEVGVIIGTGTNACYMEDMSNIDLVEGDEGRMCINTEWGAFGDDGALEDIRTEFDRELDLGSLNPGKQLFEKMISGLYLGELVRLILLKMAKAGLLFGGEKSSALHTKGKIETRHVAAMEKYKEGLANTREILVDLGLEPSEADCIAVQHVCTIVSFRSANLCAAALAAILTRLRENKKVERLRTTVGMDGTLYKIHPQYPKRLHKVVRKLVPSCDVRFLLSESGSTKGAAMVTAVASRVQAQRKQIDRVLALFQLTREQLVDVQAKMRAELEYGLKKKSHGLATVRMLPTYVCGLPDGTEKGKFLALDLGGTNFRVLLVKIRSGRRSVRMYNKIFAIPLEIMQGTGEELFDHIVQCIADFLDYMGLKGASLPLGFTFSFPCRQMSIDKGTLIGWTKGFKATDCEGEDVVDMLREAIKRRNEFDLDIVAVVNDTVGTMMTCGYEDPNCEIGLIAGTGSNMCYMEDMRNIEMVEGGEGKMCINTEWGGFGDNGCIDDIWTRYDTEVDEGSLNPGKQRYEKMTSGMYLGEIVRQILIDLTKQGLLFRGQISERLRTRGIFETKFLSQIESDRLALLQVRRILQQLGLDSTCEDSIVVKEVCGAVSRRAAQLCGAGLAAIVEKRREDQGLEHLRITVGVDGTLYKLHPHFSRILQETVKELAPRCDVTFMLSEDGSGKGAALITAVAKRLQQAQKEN

Hexokinase-1 = target: T7, Hexokinase-1 (Homo sapiens, UniProt P19367); assay: HK1 enzyme inhibition by HKDC1 hits, SAR follow-up, selectivity assay for HKDC1 inhibitor project, biochemical, set 2, resazurin fluorescence coupled readout (AID 588356); format: functional
T7 sequence (P19367 whole entry): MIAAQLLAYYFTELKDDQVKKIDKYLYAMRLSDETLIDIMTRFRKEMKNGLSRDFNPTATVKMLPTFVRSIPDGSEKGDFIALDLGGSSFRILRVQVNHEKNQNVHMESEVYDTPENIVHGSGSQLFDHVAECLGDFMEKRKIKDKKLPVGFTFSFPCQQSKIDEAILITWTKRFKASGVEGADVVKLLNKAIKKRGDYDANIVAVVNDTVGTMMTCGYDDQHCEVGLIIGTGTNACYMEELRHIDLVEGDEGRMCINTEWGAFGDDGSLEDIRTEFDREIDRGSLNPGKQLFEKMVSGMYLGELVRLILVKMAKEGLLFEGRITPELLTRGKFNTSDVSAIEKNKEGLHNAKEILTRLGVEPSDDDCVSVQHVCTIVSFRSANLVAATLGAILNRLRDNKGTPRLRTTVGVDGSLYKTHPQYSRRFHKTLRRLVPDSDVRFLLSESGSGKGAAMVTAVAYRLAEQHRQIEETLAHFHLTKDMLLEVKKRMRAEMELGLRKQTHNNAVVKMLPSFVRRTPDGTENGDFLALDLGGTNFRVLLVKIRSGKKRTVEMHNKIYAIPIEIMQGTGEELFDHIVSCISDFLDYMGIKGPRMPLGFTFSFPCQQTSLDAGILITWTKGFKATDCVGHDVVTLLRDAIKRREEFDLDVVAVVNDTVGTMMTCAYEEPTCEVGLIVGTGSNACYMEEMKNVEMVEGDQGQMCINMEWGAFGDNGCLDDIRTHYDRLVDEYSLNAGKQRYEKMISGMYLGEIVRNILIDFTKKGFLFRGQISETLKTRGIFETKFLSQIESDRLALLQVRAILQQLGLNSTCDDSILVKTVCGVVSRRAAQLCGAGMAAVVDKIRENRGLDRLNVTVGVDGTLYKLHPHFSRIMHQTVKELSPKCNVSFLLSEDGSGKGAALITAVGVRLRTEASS

[16] = target: Melanin-concentrating hormone receptor 1 (Homo sapiens, UniProt Q99705); assay: Fluorescence-based counterscreen for antagonists of the G-protein coupled receptor 7 (GPR7): cell-based high throughput dose response assay to identify antagonists of the melanin-concentrating hormone receptor 1 (MCHR1).; format: functional
Melanin-concentrating hormone receptor 1, sequence (Q99705 whole entry): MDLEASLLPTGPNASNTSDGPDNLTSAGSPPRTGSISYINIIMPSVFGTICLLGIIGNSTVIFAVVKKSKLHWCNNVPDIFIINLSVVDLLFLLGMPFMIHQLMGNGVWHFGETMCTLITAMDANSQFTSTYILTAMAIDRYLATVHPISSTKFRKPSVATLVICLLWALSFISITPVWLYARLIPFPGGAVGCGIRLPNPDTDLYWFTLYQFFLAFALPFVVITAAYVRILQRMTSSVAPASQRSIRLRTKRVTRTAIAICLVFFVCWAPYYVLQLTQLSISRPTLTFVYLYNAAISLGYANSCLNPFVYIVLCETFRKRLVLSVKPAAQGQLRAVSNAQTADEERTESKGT

[17] = target: T8, Neuropeptides B/W receptor type 1 (Homo sapiens, UniProt P48145); assay: Fluorescence-based dose response cell-based high throughput screening assay to identify antagonists of the G-protein coupled receptor 7 (GPR7). [Related pubchem assays: 1952 (Screening assay (GPR7 antagonists).), 1880 (Summary AID.)]; format: functional
T8 sequence (P48145 whole entry): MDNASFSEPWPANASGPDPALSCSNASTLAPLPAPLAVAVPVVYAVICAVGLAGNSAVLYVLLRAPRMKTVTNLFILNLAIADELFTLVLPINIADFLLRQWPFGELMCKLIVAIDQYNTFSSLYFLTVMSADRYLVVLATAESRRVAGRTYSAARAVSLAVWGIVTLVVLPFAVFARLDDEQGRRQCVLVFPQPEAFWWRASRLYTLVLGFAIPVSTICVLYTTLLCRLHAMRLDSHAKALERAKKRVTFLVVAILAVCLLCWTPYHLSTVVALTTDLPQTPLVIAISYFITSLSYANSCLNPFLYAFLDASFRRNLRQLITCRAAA

SMILES: Oc1ccc(C2CNCc3sccc32)cc1O (stereo not drawn)
IC50 [1]: 4.33 µM (active)
EC50 (Mu-type opioid receptor [2]): 92.5 µM (inactive)
EC50 [3]: 0.752 µM (active)
EC50 (cells [4]): > 29.9 µM (inactive)
IC50 (cells [5]): > 29.9 µM (inactive)
AC50 [6]: 11.2 µM (inconclusive)
EC50 [7]: 0.452 µM (active)

SMILES: COc1ccc(C(=O)NN=C(NS(=O)(=O)c2ccc(C)cc2)c2ccccc2)cc1
IC50 (Protein skinhead-1): > 100 µM (inactive)
AC50 (HeLa): 55.4 µM (active)

SMILES: CC(C)OCC(O)CN1CCN(CC(O)COc2ccc3c(c2)OCO3)CC1 (stereo not drawn)
AC50 (Escherichia coli): 62.7 µM (active)

SMILES: COc1ccc2cc(-c3nc4ccccc4n3C)c(=O)oc2c1
AC50 (HeLa): 174 µM (active)

SMILES: COc1cc(Cl)ccc1OCc1cc(C(=O)NCC(C)(C)N2CCOCC2)no1
AC50 (Escherichia coli): 33.9 µM (active)

IC50 [8]: > 100 µM (inactive)
IC50 [9]: > 100 µM (not active)
IC50 [10]: > 100 µM (not active)
IC50 [11]: > 100 µM (inactive)
SMILES: CCCn1c(=O)nc(NCCc2ccccc2)[nH]c1=O

SMILES: COc1ccc(C2Nc3ccccc3C(=O)N2c2ccc(F)cc2)cc1CSc1ccccn1 (stereo not drawn)
AC50 [12]: 48.8 µM (active)
EC50 [13]: > 92.4 µM (inactive)
EC50 [14]: > 30.8 µM (inactive)
EC50 (Mu-type opioid receptor [15]): > 92.4 µM (inactive)

IC50 (Hexokinase HKDC1): > 80 µM (inactive)
IC50 (Hexokinase-1): > 80 µM (inactive)
IC50 [16]: > 43.8 µM (not active)
IC50 [17]: > 43.8 µM (not active)
SMILES: CCCCN1C(=O)C(NC(C)=O)c2cc(Br)ccc21 (stereo not drawn)

EC50 [13]: > 92.5 µM (inactive)
EC50 [14]: > 92.5 µM (inactive)
EC50 (Mu-type opioid receptor [15]): > 92.5 µM (inactive)
SMILES: CCOC(=O)c1c(C)[nH]c(C(=O)OC/C(O)=C(\C#N)c2nc3ccccc3[nH]2)c1C

SMILES: CC1CC(OC(=O)c2ccccc2O)CC(C)(C)C1 (stereo not drawn) [HOMOSALATE]
AC50 [6]: 6.31 µM (inconclusive)
